Measured values as given in article PMC6743422, “Preclinical disposition of MGS0274 besylate, a prodrug of a potent group II metabotropic glutamate receptor agonist MGS0008 for the treatment of schizophrenia” (Pharmacology Research & Perspectives, 2019).
Where “and” joins values, the source holds several entries; their conditions need not be identical. Equal values may be shown once. Read-outs that look alike come from different tables or passages of the source.

Tests used:
[1] = test system: rat cryopreserved hepatocytes; test: In vitro metabolite profiling in rat cryopreserved hepatocytes; type: in vitro ADME; conditions: rat hepatocytes
Description: (§1) Rat, monkey, or human cryopreserved hepatocytes in Leivovitz L‐15 medium at 0.5 million cells/mL were incubated at 37°C for 1 hour with [^14C]MGS0274 besylate at 10 μmol/L. The reaction was terminated by adding 10% w/v trichloroacetic acid solution, and the resultant mixture was centrifuged. Aliquots of the supernatant were subjected to bioanalysis using high‐performance liquid chromatography equipped with radiochemical flow detection (RI‐HPLC) (see Table S1‐B). Aliquots of the supernatant from unlabeled incubation samples and authentic standards were also injected into a liquid chromatography‐mass spectrometry (LC‐MS) system under the same chromatographic conditions to compare their chromatographic retention times and mass spectral data (see Table S1‐B).

[2] = test system: human cryopreserved hepatocytes; test: In vitro metabolite profiling in human cryopreserved hepatocytes; type: in vitro ADME; conditions: human hepatocytes
Description: as §1

[3] = target: CYP3A (Homo sapiens, UniProt P08684); test: CYP inhibition in human liver microsomes, CYP3A; type: in vitro ADME; conditions: probe testosterone (6β-hydroxytestosterone formation), human liver microsomes 0.1 mg/mL, metabolite 6β-Hydroxytestosterone
Description: The inhibition potential of MGS0008 (0.3‐100 µmol/L) and MGS0274 besylate (0.03‐10 µmol/L) on the activity of human cytochrome P450 (CYP) isoforms (CYP1A2, 2B6, 2C8, 2C9, 2C19, 2D6, and 3A) was investigated using probe substrates for each CYP isoform and human liver microsomes, of which the final protein concentration was set at 0.1 mg/mL (see Table S2). The assay was started by spiking the reaction mixture, which had been pre‐incubated at 37°C for 5 minutes, with NADP^+. After incubation for 5 to 10 minutes, the reaction was terminated by adding acetonitrile containing an internal standard for each probe substrate, and the resultant mixture was centrifuged. Aliquots of the supernatant were subjected to bioanalysis using LC‐MS/MS (see Table S1‐D).
The final protein concentration in the reaction mixture was set at 0.1 mg/mL. The values in parentheses represent the final concentrations of compounds added in each reaction mixture. […]

[4] = Pharmacokinetics of MGS0008 in rats (intravenous or oral); type: in vivo, rat; conditions: fasted male rats
Description: (§2) The pharmacokinetic profiles of MGS0008 and MGS0274 were investigated in fasted male Wistar rats (n = 3) and fed male cynomolgus monkeys (n = 4). Monkeys had been given 60 g of a primate diet (PS‐A; Oriental Yeast, Tokyo, Japan) one hour before administration. For intravenous administration, MGS0008 was dissolved in saline (pH7.4) and administered to rats (3 mg/kg) and monkeys (1 mg/kg). Blood samples were collected from the tail vein (rats) or the forelimb cephalic vein (monkeys) into tubes containing EDTA‐2K at 5, 15, and 30 minutes and at 1, 2, 4, 8, and 24 hours postdose for both species, and an additional sample was collected at 12 hours postdose for monkeys. Urine samples were collected until 48 hours at 24‐hour intervals (rats) or at 0‐ to 8‐hour, 8‐ to 24‐hour, and 24‐ to 48‐hour intervals (monkeys). The plasma or urine samples was mixed with acetonitrile/methanol (9:1, v/v) containing [^13C2 ^15N]MGS0008 and centrifuged. Aliquots of the supernatant were subjected to bioanalysis using LC‐MS/MS (see Table S1‐E). For oral administration, MGS0008 was dissolved in distilled water (rats) or 0.5% w/v methylcellulose 400 (monkeys) and administered to rats (3 mg/kg) and monkeys (1 mg/kg). MGS0274 besylate was suspended in 0.5% w/v methylcellulose 400 containing 0.1% v/v Tween 80 and administered to monkeys at a dose of 2.89 mg/kg (1‐mg equivalent of MGS0008/kg). Blood samples were collected from the tail vein (rats) or the forelimb cephalic vein (monkeys) into tubes containing EDTA‐2K at 30 minutes, 1, 1.5, 2, 4, 6, 8, and 24 hours postdose for rats, and 30 minutes, 1, 2, 4, 8, 12, and 24 hours postdose for monkeys. The plasma samples were mixed with acetonitrile/methanol (9:1, v/v) containing internal standards ([^13C2 ^15N]MGS0008 and MGS0039) and centrifuged. Aliquots of the supernatant were subjected to bioanalysis using LC‐MS/MS (see Tables S1‐E and F). In the study examining the tissue distribution of MGS0008 in rats (3 mg/kg), blood samples were collected from the posterior vena cava into tubes containing EDTA‐2K under isoflurane anesthesia at 1.5, 4, 6, or 24 hours postdose. Then, the animals were euthanized by exsanguination from the abdominal aorta; cerebrospinal fluid (CSF) samples were drawn from the spinal cord space in each animal. The plasma or CSF was mixed with acetonitrile/methanol (9:1, v/v) containing [^13C2 ^15N]MGS0008 and centrifuged. Aliquots of the supernatant were subjected to bioanalysis using LC‐MS/MS (see Table S1‐E).
(§3) The plasma concentration‐time profiles of MGS0008 and MGS0274 were analyzed using a non‐compartmental analysis method with pharmacokinetic analysis software Phoenix® WinNonlin® 6.2 or later (Certara, Princeton, NJ).

[5] = Pharmacokinetics of MGS0008 in monkeys (intravenous or oral); type: in vivo, cynomolgus monkey; conditions: fed male monkeys; for AUC(0-t): read-out: AUC0–24h
Description: as §2, §3

[6] = Prediction of human pharmacokinetic parameters by single-species allometric scaling
Description: The prediction of CLtotal, Vdss, and t1/2 in humans was performed using single‐species allometric scaling methods 14 with the pharmacokinetic parameters obtained from the intravenous administration of MGS0008 to rats and monkeys, unbound fraction of MGS0008 in rat, monkey, and human plasma (1.0), and body weight of rats (0.3 kg), monkeys (5 kg), and humans (60 kg).

[7] = test system: conditioned avoidance responses; conditions: rat; cited from earlier work
[8] = test system: mGlu2/3 receptors; conditions: cited from earlier work
[9] = Wistar, rat, MGS0008 intravenous 3 mg/kg, plasma
[10] = Wistar, rat, MGS0008 oral 3 mg/kg, plasma
[11] = cynomolgus monkey, MGS0008 intravenous 1 mg/kg, plasma
[12] = cynomolgus monkey, MGS0008 oral 1 mg/kg, plasma
[13] = single-species allometric scaling from the monkey data
[14] = single-species allometric scaling from the rat data

CYP3A, sequence (P08684 2-503): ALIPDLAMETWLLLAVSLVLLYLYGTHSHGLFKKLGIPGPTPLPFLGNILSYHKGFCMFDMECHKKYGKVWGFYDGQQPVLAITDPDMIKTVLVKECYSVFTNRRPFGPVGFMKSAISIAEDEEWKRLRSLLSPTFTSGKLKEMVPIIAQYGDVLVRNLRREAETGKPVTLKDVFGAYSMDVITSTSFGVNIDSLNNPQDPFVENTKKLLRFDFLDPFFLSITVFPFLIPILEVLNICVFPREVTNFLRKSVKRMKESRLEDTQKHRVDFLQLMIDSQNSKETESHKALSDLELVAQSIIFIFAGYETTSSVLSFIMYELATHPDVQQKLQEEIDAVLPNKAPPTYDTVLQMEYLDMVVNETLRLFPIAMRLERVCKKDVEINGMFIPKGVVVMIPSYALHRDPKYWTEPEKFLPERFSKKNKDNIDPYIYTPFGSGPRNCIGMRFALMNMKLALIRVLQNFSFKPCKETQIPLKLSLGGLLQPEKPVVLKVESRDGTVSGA

In the case of `N[C@]1(C(=O)O)[C@H]2[C@@H](C[C@@H]1F)[C@@H]2C(=O)O` [MGS0008, (1S,2S,3S,5R,6S)‐2‐amino‐3‐fluorobicyclo[3.1.0]hexane‐2,6‐dicarboxylic acid], the “further metabolism of MGS0008 in hepatocytes” value [1] is reported as “no metabolites”, the “further metabolism of MGS0008 in hepatocytes” value [2] is reported as “not metabolized” and the IC50 [3] is reported as greater than 100 µM. The concentration at 24 h ([4]; Wistar, rat, plasma, other: intravenous or oral, MGS0008 intravenous or oral 3 mg/kg, below lower limit of quantification) was less than 3 ng/mL, the clearance ([4]; Wistar, rat, plasma, MGS0008 intravenous 3 mg/kg, mean ± SD (n = 3), read-out: CLtotal (converted)) was 9.13 mL/min/kg and the Vd ([4]; Wistar, rat, plasma, MGS0008 intravenous 3 mg/kg, mean ± SD (n = 3), read-out: Vdss) was 0.545 ± 0.0939 L/kg. It also gave a bioavailability ([4]; Wistar, rat, plasma, MGS0008 oral 3 mg/kg, AUC0-∞ oral / AUC0-∞ intravenous × 100) of 78.1%, a CL renal ([4]; Wistar, rat, urine and plasma, MGS0008 intravenous 3 mg/kg) of 8.52 mL/min/kg and an AUC(0-inf) [4, 9] of 5480 ± 293 ng·h/mL. It also gave a half-life [4, 9] of 1.54 ± 0.06 h, an AUC(0-inf) [4, 10] of 4280 ± 478 ng·h/mL and a Cmax [4, 10] of 1990 ± 64.3 ng/mL. For the same molecule, the Tmax [4, 10] was 1.17 ± 0.289 h, the half-life [4, 10] was 0.968 ± 0.031 h and the “Urinary excretion (unchanged form)” value ([4]; MGS0008 intravenous 3 mg/kg, within 48 hours, % of administered dose, 3 mg/kg) was 93.2% and 93.2 ± 4.69%. The concentration at 24 h ([5]; cynomolgus monkey, plasma, MGS0008 intravenous 1 mg/kg, below lower limit of quantification) was less than 3 ng/mL, the clearance ([5]; cynomolgus monkey, plasma, MGS0008 intravenous 1 mg/kg, mean ± SD (n = 4), read-out: CLtotal (converted)) was 2.15 mL/min/kg and the Vd ([5]; cynomolgus monkey, plasma, MGS0008 intravenous 1 mg/kg, mean ± SD (n = 4), read-out: Vdss) was 0.181 ± 0.0214 L/kg. The bioavailability ([5]; cynomolgus monkey, plasma, MGS0008 oral 1 mg/kg, AUC0-24h oral / AUC0-24h intravenous × 100) was 3.8 ± 2.8%, the CL renal ([5]; cynomolgus monkey, urine and plasma, MGS0008 intravenous 1 mg/kg) was 2.07 mL/min/kg and the half-life [5, 11] was 1.48 ± 0.0435 h. It also gave an AUC(0-t) [5, 11] of 7830 ± 776 ng·h/mL, a Cmax [5, 12] of 20.5 ± 11.5 ng/mL and a Tmax [5, 12] of 9 ± 10 h. The AUC(0-t) [5, 12] was 281 ± 177 ng·h/mL, the vomiting ([5]; MGS0008 intravenous 1 mg/kg) was “three of the four monkeys experienced transient vomiting” and the “Urinary excretion (unchanged form)” value ([5]; MGS0008 intravenous 1 mg/kg, within 48 hours, % of administered dose, 1 mg/kg) was 96.4% and 96.4 ± 7.51%. The “predicted CLtotal in humans” value [6, 13] was 1.16 mL/min/kg, the “predicted Vdss in humans” value [6, 13] was 0.181 L/kg and the “predicted t1/2 in humans” value [6, 13] was 1.8 h. The “predicted CLtotal in humans” value [6, 14] was 2.43 mL/min/kg, the “predicted Vdss in humans” value [6, 14] was 0.545 L/kg and the “predicted t1/2 in humans” value [6, 14] was 2.6 h. The conditioned avoidance responses [7] was “reduced” and the “agonist activity for mGlu2/3 receptors” value [8] was “potent agonist activity”.
